Test results taken from patent US20050238651A1, “Treatment of inflammatory bowel disease” (priority 2003, published 2005).

How the values were obtained:
[1] = test system: indoleamine 2,3-dioxygenase in lamina propria mononuclear cells; assay: IDO expression in cultured colonic lamina propria mononuclear cells incubated with rIFN-γ and/or LPS; assay type: cell-based, mouse
TNFα mRNA = assay: Real-time PCR of colonic TNFα mRNA; assay type: in vivo, mouse; details: TNBS colitis, Day 4; PBS 5 fold
[2] = test system: indoleamine 2,3-dioxygenase mRNA; assay: Real-time PCR of indoleamine 2,3-dioxygenase mRNA in distal colon; assay type: in vivo, SJL/J mouse; details: TNBS colitis, Day 4; PBS 8 fold
Text: (§1) Six week old female SJL/J mice weighing approximately 20 grams, which were maintained at a controlled temperature and light/dark cycle in a pathogen free facility, were anesthetized with an intraperitoneal injection of a 10% Ketamine/Xylazine mixture. […] Mice were sacrificed 4 days after treatment for determination of indoleamine 2,3-dioxygenase protein and mRNA levels.

IL-1 mRNA = assay: Real-time PCR of colonic IL-1 mRNA; details: 4 days after TNBS
interleukin (IL)-2 mRNA = assay: Real-time PCR of colonic IL-2 mRNA; details: 4 days after TNBS
[3] = test system: Forkhead box P3 (Foxp3) mRNA; assay: Real-time PCR of colonic Foxp3 mRNA; assay type: in vivo, mouse; details: Day 4 of TNBS colitis
IL-12 mRNA = assay: Real-time PCR of colonic IL-12 mRNA; details: 4 days after TNBS, Example 5; placebo 20-fold
TNBS colitis = TNBS colitis treated with CTLA-4-Ig with or without 1-mT: weight, survival, clinical characteristics, histological and morphological scoring; assay type: in vivo, SJL/J mice
[4] = test system: Trinitrobenzene Sulfonic Acid colitis; details: mouse, in vivo
IFN-γ mRNA = assay: Real-time PCR of colonic IFN-γ mRNA
TGFβ1 mRNA = assay: Real-time PCR of colonic TGFβ / TGFβ1 mRNA
[5] = test system: indoleamine 2,3-dioxygenase protein; assay: Western blotting of indoleamine 2,3-dioxygenase protein in distal colon lysates; assay type: in vivo, mouse; details: four days after TNBS, 1-mT versus placebo
Experimental: as §1
Western blotting (Bio-Rad, Hercules, Calif.) for determining indoleamine 2,3-dioxygenase protein amount was performed on whole colon lysates obtained from the distal colons of both control mice and mice treated with Trinitrobenzene Sulfonic Acid. For Lamina Propria Mononuclear cells, 1×10^6 cells were concentrated and loaded per lane. The samples were denatured and separated on an 8% Sodium Dodecyl Sulphate-Polyacrylamide (SDS-PAGE) gel. After electrophoresis, the separated proteins were then transferred to an Immobilon-P Transfer Membrane (Millipore, Be-dford, Mass.). […] The secondary antibodies were donkey anti-rabbit linked to horseradish peroxidase. After probing for indoleamine 2,3-dioxygenase protein, the membranes were stripped and reprobed for β-actin, which was used in addition to the protein assay to ensure equal protein loading.
Western blotting for indoleamine 2,3-dioxygenase was performed as follows. […] The protein was detected using ECL (Amersham). […]

[6] = test system: lymphocytes in lamina propria lymphoid aggregates; assay: BrdU immunohistochemistry of lymphocyte proliferation in lamina propria lymphoid aggregates; assay type: in vivo, mice; details: 4 days and 6 days after TNBS
Experimental: Lymphocyte proliferation was determined by BrdU labeling of lamina propria lymphoid aggregates of mice treated with Trinitrobenzene Sulfonic Acid enemas plus subcutaneous pellets containing 1-methyl-tryptophan.
BrdU immunohistochemistry was performed to measure cellular proliferation in hypertrophied lymphoid aggregates within the lamina propria of Trinitrobenzene Sulfonic Acid ±1-methyl-tryptophan treated mice. Mice were given rectal Trinitrobenzene Sulfonic Acid and subcutaneous pellets containing 1-methyl-tryptophan or placebo. Groups of mice were sacrificed at 4 days and 6 days after Trinitrobenzene Sulfonic Acid administration. Each mouse received BrdU two hours prior to sacrifice in order to label the S-phase cells. Four micro paraffin sections were prepared from the inflamed colon segments with macroscopically visible hypertrophied colonic patches then labeling was performed as previously described in Riehl, Gasteroenterology, 118: 1106-16, 2000.

## rIFN-γ: recombinant interferon-γ (R&D systems)
[1]; B220+ enriched lamina propria mononuclear cell population
  indoleamine 2,3-dioxygenase expression after incubation: did express indoleamine 2,3-dioxygenase after incubation
[1]; B220-/MHCII- lamina propria mononuclear cell population
  indoleamine 2,3-dioxygenase expression after incubation: increased after incubation
[1]; MHCII+/B220- lamina propria mononuclear cell population
  indoleamine 2,3-dioxygenase expression after incubation: further induced
[1]; colon lamina propria mononuclear cells from STAT1-/- animals
  indoleamine 2,3-dioxygenase protein induction: severely blunted indoleamine 2,3-dioxygenase protein induction
[1]; colonic lamina propria mononuclear cells from C57BL/6 mice, 24 hours
  indoleamine 2,3-dioxygenase induction: increased significantly
[1]; lamina propria mononuclear cells
  concentration required to maximally increase indoleamine 2,3-dioxygenase protein: less than 1 ng/ml
[1]; unfractionated lamina propria mononuclear cells of untreated mice, 30 ng/mL, 24 hours
  indoleamine 2,3-dioxygenase expression after incubation: marked increase

## Cn1cc(C[C@H](N)C(=O)O)c2ccccc21 [1-mT, 1-methyltryptophan]
TNFα mRNA
  TNFα mRNA induction: 16 fold
[2]
  increase in IDO mRNA expression over controls: 2 fold
IL-1 mRNA
  IL-1 mRNA levels versus TNBS alone: markedly increased
Interleukin (IL)-2 mRNA
  IL-2 expression versus TNBS and placebo: significantly higher expression by orders of magnitude
[3]
  induction of Foxp3 mRNA: 11 fold
IL-12 mRNA
  IL-12 expression increase over baseline: 120 fold
TNBS colitis; Day 4 of TNBS, PBS 2.9
  morphological score: 4.2
TNBS colitis; Day 4 of TNBS, PBS 5.4
  histological score: 6.6
TNBS colitis; TNBS, Day 4
  histology of distal colon: more transmural inflammation, loss of tissue architecture and vasculature, and outright necrosis
TNBS colitis; TNBS, by Day 4, PBS+TNBS 75%
  survival rate: 62.5%
TNBS colitis; TNBS, TNBS+PBS 7/9
  surviving animals with clinical characteristics of active TNBS colitis (hunched, piloerection), number of animals: 4/5
TNBS colitis; TNBS, TNBS+PBS 78%
  surviving animals with clinical characteristics of TNBS colitis: 80%
TNBS colitis; mouse, in vivo
  mortality (animals dead of animals treated): 3 of 8
  mortality rate: 37%
[4]
  effect on colonic morphology: no effect on colonic morphology
  gross morphology of colon versus placebo: significant gross morphologic differences
  histologic appearance versus placebo: no significant histologic differences
  histologic scores versus placebo: significantly higher
  survival rate: 100%
[4]; sc
  survival at 7 days after Trinitrobenzene Sulfonic Acid administration: 20%
IFN-γ mRNA; 4 days after TNBS, Example 5, placebo 8-fold
  IFN-γ expression increase over baseline: 75 fold
IFN-γ mRNA; TNBS colitis, Day 4
  induction of IFN-γ mRNA: 15 fold
TGFβ1 mRNA; 4 days after TNBS, Example 5, placebo about half of control
  expression of TGFβ: 1.5 times control values
TGFβ1 mRNA; Day 4 of TNBS colitis
  TGFβ1 mRNA induction: 0.8 fold
[5]
  colonic indoleamine 2,3-dioxygenase protein amount: no difference
[6]
  S phase lymphocytes in lymphoid aggregates (BrdU) versus placebo: significantly more S phase lymphocytes
